From patent US20150004100A1, “HETEROCYCLIC COMPOUNDS AS IMAGING PROBES OF TAU PATHOLOGY” (GE HEALTHCARE LIMITED, priority 2011, published 2015)
“Also recorded” adds a separate entry of the source.

Tests used:
[1] = test system: rat liver microsomes; test: Liver microsome stability assay, rat; type: in vitro ADME; conditions: 1 μM, 37° C., parent compound remaining, criterion >50%
Protocol: (§1) The liver microsome stability assay provides an estimate of compound stability and rate of metabolism in vivo. The desirable criterion for this assay is >50% parent compound after 30 min.
(§2) A 1 μM compound solution was incubated with rat or human liver microsomes (20 mg/ml) at 37° C. and the amount of parent compound remaining following the incubation was determined after 5 and 30 min of incubation using LC-MS.

[2] = test system: tau+ NFTs; test: Tissue binding assay (fluorescence), NFTs in human AD tissue sections; set-up: key to NFTs (staining): −: No staining; +: weak staining; ++: moderate staining; +++: intense staining; conditions: for NFTs (staining): Table 2, 100 μM, human AD tissue; for Binding to NFTs (in words): high test concentration, AD tissue
Protocol: (§3) Human brain tissue samples from the entorhinal cortex of patients with Alzheimer's disease (AD) and healthy controls were obtained from Tissue Solutions (Tissue Solutions Ltd, Glasgow, UK). Tissue samples were collected after informed written consent, and specimens were dissected at the tissue bank and snap-frozen for cryopreservation at a time interval of between 3 and 18 h after death. The frozen tissue was embedded in TissueTek® (VWR) and sectioned using a Microm HM560 cryostat (Thermo Scientific). Serial 12 μm sections were mounted onto SuperFrost®+ glass slides (VWR) and stored a −70° C.
(§4) The binding of compounds to tau+NFTs and Aβ+ plaques in human AD tissue were evaluated based on fluorescence.
(§5) Briefly, tissue sections were defrosted and fixed in ice-cold 70% ethanol. All tissue sections were rinsed with PBS after fixation and between all subsequent incubation steps. To quench autofluorescence, tissue sections were incubated first with 0.25% KMnO4 (Sigma-Aldrich) in PBS for 12 min, and then with 0.1% […]/0.1% oxalic acid (both reagents from Sigma-Aldrich) in PBS for 1 min. The tissue sections were blocked with 2% BSA in PBS for 10 min, and then incubated with the test compounds at 100 μM concentration for 1 h at RT. […] Finally the tissue sections were rinsed in PBS, and mounted in SlowFade® mounting media (Invitrogen). Images of labelled tissue sections were captured using a Nikon digital camera connected to a Leica microscope and using the NIS Elements D software (Nikon). Images were further processed with the Photoshop® software (Adobe).

[3] = In vivo cold bio-distribution in rat (brain uptake, LC-MS)
Protocol: All animal studies were in compliance with local rules and regulations. Test compounds were administered by intravenous (i.v) injection through the tail vein of naïve male Wistar rats (50 μg test compound/rat). The animals were sacrificed by dislocation of the neck at 2, 10, 30, 60 min post-injection (p.i). The brain and plasma were collected from each animal. The concentration of test compound was measured in the plasma and brain homogenates using LS-MS, and calculated as % compound/g (% ID/g).

[4] = test system: tau+ NFTs; test: Tissue binding assay (fluorescence), NFTs in human AD tissue sections; set-up: key to NFTs (staining): −: No staining; +: weak staining; ++: moderate staining; +++: intense staining; conditions: for NFTs (staining): Table 2, human AD tissue
[5] = test system: Aβ+ plaques; test: Tissue binding assay (fluorescence), plaques in human AD tissue sections; set-up: key to Plaques (staining): −: No staining; +: weak staining; ++: moderate staining; +++: intense staining; conditions: for Plaques (staining): Table 2, human AD tissue
[6] = test system: Aβ+ plaques; test: as above; set-up: key to Plaques (staining): −: No staining; +: weak staining; ++: moderate staining; +++: intense staining; conditions: for Plaques (staining): Table 2, 100 μM, human AD tissue; for Binding to plaques (in words): high test concentration, AD tissue
Protocol: as §3, §4, §5

[7] = test system: human liver microsomes; test: Liver microsome stability assay, human; type: in vitro ADME; conditions: 1 μM, 37° C., parent compound remaining, criterion >50%
Protocol: as §1, §2

[8] = Protein binding assay, human plasma (rapid equilibrium dialysis); type: in vitro ADME; conditions: % bound, criterion <99%
Protocol: (§6) The protein binding assays provide an estimate of free (unbound) fraction of the compound in the blood or brain in vivo. […] The desirable criterion for this assay is <99% of test compound bound.
(§7) Test compounds were first dissolved in DMSO to a concentration of 50 μM. This was followed by incubation in samples of human plasma and rat brain homogenates (final test concentration 1 μM). Binding of compounds to proteins was determined in the samples by rapid equilibrium dialysis after 5 and 30 min of incubation.

[9] = Protein binding assay, rat brain homogenates (rapid equilibrium dialysis); type: in vitro ADME; conditions: rat brain homogenate, % bound, criterion <99%
Protocol: as §6, §7

[10] = PAMPA (parallel artificial membrane permeability assay); type: in vitro ADME; conditions: 10 μM, 5 h at RT; criterion >−6
Protocol: The PAMPA assay is used to determine how well a compound crosses a cell membrane by measuring its passage through a phosphotidyl choline barrier. A permeability coefficient >−6 indicates high permeability across lipid membranes and is indicative of a compounds ability to cross the blood brain barrier.
A 10 μM solution was incubated on a PDVF membrane coated with a 2% phoshotidyl choline solution for 5 h at RT. Membrane penetration was measured using LC-MS.

[11] = test system: NFTs and plaques; conditions: literature reports; cited from earlier work
[12] = literature reports; cited from earlier work
[13] = test system: tau aggregates over Aβ1-42 amyloid; conditions: in vitro, Kudo et al. 2005; cited from earlier work
[14] = lower test concentrations, AD tissue

Liver stability Rat (% PCP) 5 min [1]	Liver stability Rat (% PCP) 30 min [1]	NFTs (staining) [2]	NFTs (staining) ([4]; 1 μM)	NFTs (staining) ([4]; 10 μM)	Plaques (staining) ([5]; 1 μM)	Plaques (staining) ([5]; 10 μM)	Plaques (staining) [6]	Liver stability Human (% PCP) 5 min [7]	Liver stability Human (% PCP) 30 min [7]	fraction unbound at 1 μM [8]	fraction unbound at 1 μM [9]	PAMPA Log Pe [10]	Structure (SMILES)	Binding to NFTs (in words) [2]	Binding to plaques (in words) [6]	Reported binding to NFTs / plaques (in words) [11]	Reported brain uptake in vivo (in words) [12]	Selectivity for tau aggregates over Aβ1-42 amyloid [13]	other results
81.7 % PCP	56.4 % PCP	+++	+	++	−	+	++	87.2 % PCP	74.4 % PCP	0.0642	0.428	−5.02	CC(C)NC(=O)c1nn(-c2ccc(OCCF)cc2)c(=O)c2c(N)scc12 [Compound 38]	binds to both NFTs (A) and plaques (B); also recorded: bind to both NFTs and plaques	binds to both NFTs (A) and plaques (B); also recorded: bind to both NFTs and plaques				tissue uptake at 2 min ([3]; male, Wistar, rat, brain, iv, 50 μg/rat, 2 min p.i.): > 0.2 %ID/g; tissue uptake at 10 min ([3]; male, Wistar, rat, brain, iv, 50 μg/rat, 10 min p.i.): 0.081 %ID/g; tissue uptake at 30 min ([3]; male, Wistar, rat, brain, iv, 50 μg/rat, 30 min p.i.): 0.021 %ID/g; tissue uptake at 60 min ([3]; male, Wistar, rat, brain, iv, 50 μg/rat, 60 min p.i.): 0.011 %ID/g; Clearance ratio 2:30 min ([3]; rat brain, 2 min vs 30 min p.i.): 13.3; Brain uptake and clearance (in words) ([3]; rat, from clearance ratio): rapid brain uptake followed by rapid clearance; Brain uptake % ID/g p.i ([3]; rat, i.v., 2 min p.i.): 0.28 % ID/g; Binding preference for NFTs (in words) [4, 14]: binds preferentially to NFTs; also recorded: bind with a preference for NFTs
		+++	+	++	+	++	+++						CC(=C(C#N)C#N)c1ccc2cc(N(C)CCF)ccc2c1 [FDDNP, 2-(1-(2-(N-(2-fluoroethy)-N-methylamino)-naphthalene-6-yl)-ethylidende)-malononitrile, reference compound]	detected to both NFTs and plaques	detected to both NFTs and plaques	binds to both NFTs and plaques			
													Nc1ccc(-c2ccc3ccccc3n2)cc1 [BF-170]					threefold	
													CNc1ccc(-c2ccc3ccccc3n2)cc1 [BF-158]					threefold	
97.06 % PCP	70.19 % PCP	+++	+	++	−	−	+	98.9 % PCP	68.29 % PCP	0.0098	0.0906	−5.24	CC(C)NC(=O)c1nn(-c2ccc(Cl)cc2)c(=O)c2c(N)scc12 [ATPZ, reference compound]				high brain uptake in vivo		

Structure (SMILES)	Liver stability Rat (% PCP) 5 min [1]	Liver stability Rat (% PCP) 30 min [1]	NFTs (staining) [2]	NFTs (staining) ([4]; 1 μM)	NFTs (staining) ([4]; 10 μM)	Plaques (staining) ([5]; 1 μM)	Plaques (staining) ([5]; 10 μM)	Plaques (staining) [6]	Liver stability Human (% PCP) 5 min [7]	Liver stability Human (% PCP) 30 min [7]	fraction unbound at 1 μM [8]	fraction unbound at 1 μM [9]	PAMPA Log Pe [10]	Binding to NFTs (in words) [2]	Binding to plaques (in words) [6]	Reported binding to NFTs / plaques (in words) [11]	Reported brain uptake in vivo (in words) [12]	Selectivity for tau aggregates over Aβ1-42 amyloid [13]	other results
[11CH3]Nc1ccc(-c2nc3ccc(O)cc3s2)cc1 [PiB, Pittsburgh compound B, reference compound]			+++	−	+	++	++	+++						detected to both NFTs and plaques	detected to both NFTs and plaques	bind with a preference to Aβ+ plaques	high brain uptake in vivo		Binding to plaques (in words) [5, 14]: only bound to plaques
